The term pIC50 denotes the IC50 on a negative log10 scale, so that one unit is a factor of ten.

pIC50: −log10 of the molar value.

T1 sequence (O00763 144-2458): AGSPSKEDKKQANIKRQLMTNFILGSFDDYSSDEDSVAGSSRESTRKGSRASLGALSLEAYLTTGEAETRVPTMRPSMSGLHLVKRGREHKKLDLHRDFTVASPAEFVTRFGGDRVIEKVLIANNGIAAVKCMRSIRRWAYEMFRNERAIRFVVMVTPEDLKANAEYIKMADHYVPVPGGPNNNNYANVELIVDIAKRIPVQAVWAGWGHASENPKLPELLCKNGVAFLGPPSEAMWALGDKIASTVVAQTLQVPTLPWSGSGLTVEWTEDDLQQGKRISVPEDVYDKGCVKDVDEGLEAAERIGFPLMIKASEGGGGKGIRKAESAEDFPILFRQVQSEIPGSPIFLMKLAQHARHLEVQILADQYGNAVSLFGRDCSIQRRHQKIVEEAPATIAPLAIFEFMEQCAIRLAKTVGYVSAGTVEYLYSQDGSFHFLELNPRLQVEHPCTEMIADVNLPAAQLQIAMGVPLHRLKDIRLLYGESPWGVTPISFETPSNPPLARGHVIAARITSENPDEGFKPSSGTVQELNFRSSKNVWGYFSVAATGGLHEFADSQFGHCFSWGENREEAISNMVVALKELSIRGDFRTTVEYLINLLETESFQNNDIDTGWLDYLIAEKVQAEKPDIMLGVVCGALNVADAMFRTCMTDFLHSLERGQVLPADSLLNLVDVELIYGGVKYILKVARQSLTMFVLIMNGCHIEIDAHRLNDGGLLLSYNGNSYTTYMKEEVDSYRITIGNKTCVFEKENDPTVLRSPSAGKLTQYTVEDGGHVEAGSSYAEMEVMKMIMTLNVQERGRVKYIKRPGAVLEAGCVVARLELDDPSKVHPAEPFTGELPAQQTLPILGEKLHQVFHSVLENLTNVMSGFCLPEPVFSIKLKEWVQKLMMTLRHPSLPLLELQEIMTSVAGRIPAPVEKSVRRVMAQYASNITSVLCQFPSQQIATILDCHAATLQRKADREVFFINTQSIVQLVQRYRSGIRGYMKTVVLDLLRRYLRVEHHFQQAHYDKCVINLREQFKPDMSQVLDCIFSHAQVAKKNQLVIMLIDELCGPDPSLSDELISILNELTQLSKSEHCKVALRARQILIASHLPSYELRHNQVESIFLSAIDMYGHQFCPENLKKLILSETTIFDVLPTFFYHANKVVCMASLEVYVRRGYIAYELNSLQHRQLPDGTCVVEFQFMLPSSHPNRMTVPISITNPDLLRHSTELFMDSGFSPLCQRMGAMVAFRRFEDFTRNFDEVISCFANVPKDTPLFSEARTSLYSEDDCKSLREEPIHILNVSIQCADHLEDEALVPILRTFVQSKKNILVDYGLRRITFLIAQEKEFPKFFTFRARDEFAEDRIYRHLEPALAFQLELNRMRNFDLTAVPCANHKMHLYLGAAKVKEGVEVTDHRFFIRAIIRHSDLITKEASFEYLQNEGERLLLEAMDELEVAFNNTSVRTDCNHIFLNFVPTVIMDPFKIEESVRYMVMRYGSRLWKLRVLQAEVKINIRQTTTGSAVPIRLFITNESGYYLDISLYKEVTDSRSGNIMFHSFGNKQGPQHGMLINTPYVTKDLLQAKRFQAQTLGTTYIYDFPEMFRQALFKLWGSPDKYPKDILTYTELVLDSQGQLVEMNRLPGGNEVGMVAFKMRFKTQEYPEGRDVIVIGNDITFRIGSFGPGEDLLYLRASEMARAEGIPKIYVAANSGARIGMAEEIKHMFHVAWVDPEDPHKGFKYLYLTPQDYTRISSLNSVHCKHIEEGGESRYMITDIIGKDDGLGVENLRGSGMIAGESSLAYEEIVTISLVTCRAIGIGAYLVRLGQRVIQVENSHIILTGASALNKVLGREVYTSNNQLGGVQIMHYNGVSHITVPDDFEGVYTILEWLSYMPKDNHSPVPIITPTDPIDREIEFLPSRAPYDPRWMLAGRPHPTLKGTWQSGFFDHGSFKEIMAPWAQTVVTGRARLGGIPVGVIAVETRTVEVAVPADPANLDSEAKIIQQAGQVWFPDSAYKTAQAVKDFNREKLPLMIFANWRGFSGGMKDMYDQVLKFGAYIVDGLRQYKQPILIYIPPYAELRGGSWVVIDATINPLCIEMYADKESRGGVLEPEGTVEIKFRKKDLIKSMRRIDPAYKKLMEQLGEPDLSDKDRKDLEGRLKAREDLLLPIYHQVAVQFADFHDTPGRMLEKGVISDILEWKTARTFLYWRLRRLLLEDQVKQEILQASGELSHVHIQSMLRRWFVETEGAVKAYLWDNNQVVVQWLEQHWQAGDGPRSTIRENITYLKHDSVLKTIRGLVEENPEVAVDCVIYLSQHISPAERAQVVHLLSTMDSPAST

This experiment has as its target T1, human acetyl-CoA carboxylase 2 (ACC2) (Homo sapiens, UniProt O00763).
T1 construct: The cDNA encoding amino acids 144 to 2458 of human acetyl-CoA carboxylase 2; made in house; host or cells: Sf9 insect cells (baculovirus, pFastBac1)
Put plainly: Acetyl-CoA carboxylase enzyme assay (malonyl-CoA formation by LC/MS/MS). Format: biochemical. Conditions: recombinant human ACC2 (aa 144-2458); read-out: IC50 ACC2. The essentials:
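Malonyl-CoA formation was read by LC/MS/MS MRM against a [13C3]-malonyl-CoA internal standard, after acetic acid quench. The enzyme was baculovirus/Sf9-expressed human ACC2 residues 144–2458, given 15 minutes room-temperature compound preincubation in HEPES pH 7.5 buffer with MgCl2, citrate and DTT. Substrate solution held 50 μM acetyl-CoA, 120 μM ATP and 2 mM KHCO3.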
As to `C[C@@H](NC(=O)[C@H]1CC[C@H](NS(=O)(=O)c2ccc3[nH]c(Nc4cccc(C#N)c4)nc3c2)CC1)c1ccccc1` [Example 570, (1r,4R)-4-(2-(3-cyanophenylamino)-1H-benzo[d]imidazole-5-sulfonamido)-N-((R)-1-phenylethyl)cyclohexanecarboxamide], the pIC50 is over 8.00.
Take `C[C@@H](NC(=O)[C@H]1CC[C@H](NS(=O)(=O)c2ccc3[nH]c(Nc4ccc(N5CCOCC5)nc4)nc3c2)CC1)c1ccccc1` [Example 571, (1r,4R)-4-(2-(6-morpholinopyridin-3-ylamino)-1H-benzo[d]imidazole-5-sulfonamido)-N-((R)-1-phenylethyl)cyclohexanecarboxamide]: the pIC50 was over 8.00.
In the case of `CC(=O)c1ccc(Nc2nc3cc(S(=O)(=O)N[C@H]4CC[C@H](C(=O)N[C@H](C)c5ccccc5)CC4)ccc3[nH]2)cc1` [Example 572, (1r,4R)-4-(2-(4-acetylphenylamino)-1H-benzo[d]imidazole-5-sulfonamido)-N-((R)-1-phenylethyl)cyclohexanecarboxamide], the pIC50 is over 8.00.
On to `CC(O)c1ccc(-c2nc3cc(S(=O)(=O)N[C@H]4CC[C@H](C(=O)N[C@H](C)c5ccccc5)CC4)ccc3[nH]2)cc1` (stereo partly drawn) [Example 573, (1r,4R)-4-(2-(4-(1-hydroxyethyl)phenyl)-1H-benzo[d]imidazole-5-sulfonamido)-N-((R)-1-phenylethyl)cyclohexanecarboxamide], for which the pIC50 is over 8.00.
As for `C[C@@H](NC(=O)[C@H]1CC[C@H](NS(=O)(=O)c2ccc3[nH]c(Nc4ccc(N5CCOCC5)cc4)nc3c2)CC1)c1ccccc1` [Example 574, (1r,4R)-4-(2-(4-morpholinophenylamino)-1H-benzo[d]imidazole-5-sulfonamido)-N-((R)-1-phenylethyl)cyclohexanecarboxamide], the pIC50 is over 8.00.
For the compound `C[C@@H](NC(=O)[C@H]1CC[C@H](NS(=O)(=O)c2ccc3[nH]c(-c4ccc(N5CCN(C)CC5)cc4)nc3c2)CC1)c1ccccc1` [Example 575, (1r,4R)-4-(2-(4-(4-methylpiperazin-1-yl)phenyl)-1H-benzo[d]imidazole-5-sulfonamido)-N-((R)-1-phenylethyl)cyclohexanecarboxamide], the pIC50 was over 8.00.
Consider `C[C@@H](NC(=O)[C@H]1CC[C@H](NS(=O)(=O)c2ccc3[nH]c(-c4ccc(CN5CCN(C)CC5)cc4)nc3c2)CC1)c1ccccc1` [Example 576, (1r,4R)-4-(2-(4-((4-methylpiperazin-1-yl)methyl)phenyl)-1H-benzo[d]imidazole-5-sulfonamido)-N-((R)-1-phenylethyl)cyclohexanecarboxamide], for which the pIC50 was over 8.00.
For `C[C@@H](NC(=O)[C@H]1CC[C@H](NS(=O)(=O)c2ccc3[nH]c(-c4ccc(CN5CCOCC5)cc4)nc3c2)CC1)c1ccccc1` [Example 577, (1r,4R)-4-(2-(4-(morpholinomethyl)phenyl)-1H-benzo[d]imidazole-5-surfonamido)-N-((R)-1-phenylethyl)cyclohexanecarboxamide], the pIC50 is 7.82.
On to `C[C@H](c1ccccc1)N(C)C(=O)[C@H]1CC[C@H](NS(=O)(=O)c2ccc3[nH]c(-c4ccccc4)nc3c2)CC1` [Example 578, (1r,4R)-N-methyl-4-(2-phenyl-1H-benzo[d]imidazole-5-sulfonamido)-N-((R)-1-phenylethyl)cyclohexanecarboxamide], for which the pIC50 was 7.21.
Regarding `O=C(N[C@H](CO)c1ccccc1)[C@H]1CC[C@H](NS(=O)(=O)c2ccc3[nH]c(-c4ccccc4)nc3c2)CC1` [Example 579, (1r,4S)-N-((S)-2-hydroxy-1-phenylethyl)-4-(2-phenyl-1H-benzo[d]imidazole-5-sulfonamido)cyclohexanecarboxamide], the pIC50 was 8.00.
The same measure for `C[C@@H](NC(=O)C1CCC(NS(=O)(=O)c2ccc3[nH]c(-c4ccccc4)nc3c2)CC1)c1ccccc1` (stereo partly drawn) [Example 580, (1r,4S)-4-(2-phenyl-1H-benzo[d]imidazole-5-sulfonamido)-N-((S)-1-phenylethyl)cyclohexanecarboxamide]: 5.76; for `O=C(NC1(c2ccccc2)CC1)[C@H]1CC[C@H](NS(=O)(=O)c2ccc3[nH]c(-c4ccccc4)nc3c2)CC1` [Example 581, (1r,4r)-4-(2-phenyl-1H-benzo[d]imidazole-5-sulfonamido)-N-(1-phenylcyclopropyl)cyclohexanecarboxamide]: 6.51.
With `CC(C)(NC(=O)[C@H]1CC[C@H](NS(=O)(=O)c2ccc3[nH]c(-c4ccccc4)nc3c2)CC1)c1ccccc1` [Example 582, (1r,4r)-4-(2-phenyl-1H-benzo[d]imidazole-5-sulfonamido)-N-(2-phenylpropan-2-yl)cyclohexanecarboxamide], the pIC50 was 6.60.
On to `CN1CCN(c2ccc(-c3nc4cc(S(=O)(=O)N[C@H]5CC[C@H](C(=O)N6CCOCC6)CC5)ccc4[nH]3)cc2)CC1` [Example 583, 2-(4-(4-methylpiperazin-1-yl)phenyl)-N-((1r,4r)-4-(morpholine-4-carbonyl)cyclohexyl)-1H-benzo[d]imidazole-5-sulfonamide], for which the pIC50 was 7.26.
On to `O=C([C@H]1CC[C@H](NS(=O)(=O)c2ccc3[nH]c(Nc4ccccc4)nc3c2)CC1)N1CCOCC1` [Example 584, N-((1r,4r)-4-(morpholine-4-carbonyl)cyclohexyl)-2-(phenylamino)-1H-benzo[d]imidazole-5-sulfonamide], for which the pIC50 was 6.92.
The same measure for `CC(C)(C)c1nnc([C@H]2CC[C@H](NS(=O)(=O)c3ccc4[nH]c(-c5ccccc5)nc4c3)CC2)o1` [Example 585, N-((1r,4r)-4-(5-tert-butyl-1,3,4-oxadiazol-2-yl)cyclohexyl)-2-phenyl-1H-benzo[d]imidazole-5-sulfonamide]: 6.11.
The figure for `CC(C)c1nnc([C@H]2CC[C@H](NS(=O)(=O)c3ccc4[nH]c(-c5ccccc5)nc4c3)CC2)o1` [Example 586, N-((1r,4r)-4-(5-isopropyl-1,3,4-oxadiazol-2-yl)cyclohexyl)-2-phenyl-1H-benzo[d]imidazole-5-sulfonamide] is 5.88; for `CC(C)c1nnc([C@H]2CC[C@H](NS(=O)(=O)c3ccc4[nH]c(-c5ccc(N6CCN(C)CC6)cc5)nc4c3)CC2)o1` [Example 587, N-((1r,4r)-4-(5-isopropyl-1,3,4-oxadiazol-2-yl)cyclohexyl)-2-(4-(4-methylpiperazin-1-yl)phenyl)-1H-benzo[d]imidazole-5-sulfonamide] it is 6.53; for `CC(C)(C)c1nnc([C@H]2CC[C@H](NS(=O)(=O)c3ccc4[nH]c(-c5ccc(N6CCOCC6)cc5)nc4c3)CC2)o1` [Example 588, N-((1r,4r)-4-(5-tert-butyl-1,3,4-oxadiazol-2-yl)cyclohexyl)-2-(4-morpholinophenyl)-1H-benzo[d]imidazole-5-sulfonamide] it is 6.57.
The same measure for `CC(C)c1nnc([C@H]2CC[C@H](NS(=O)(=O)c3ccc4[nH]c(-c5ccc(N6CCOCC6)cc5)nc4c3)CC2)o1` [Example 589, N-((1r,4r)-4-(5-isopropyl-1,3,4-oxadiazol-2-yl)cyclohexyl)-2-(4-morpholinophenyl)-1H-benzo[d]imidazole-5-sulfonamide]: 6.29; for `CC(C)c1nnc(-c2ccc(NS(=O)(=O)c3ccc4[nH]c(-c5ccc(N6CCN(C)CC6)cc5)nc4c3)cc2)o1` [Example 590, N-(4-(5-isopropyl-1,3,4-oxadiazol-2-yl)phenyl)-2-(4-(4-methylpiperazin-1-yl)phenyl)-1H-benzo[d]imidazole-5-sulfonamide]: 6.37.
On to `CN1CCN(c2ccc(-c3nc4cc(S(=O)(=O)Nc5ccc(-c6nnc(C(C)(C)C)o6)cc5)ccc4[nH]3)cc2)CC1` [Example 592, N-(4-(5-tert-butyl-1,3,4-oxadiazol-2-yl)phenyl)-2-(4-(4-methylpiperazin-1-yl)phenyl)-1H-benzo[d]imidazole-5-sulfonamide], for which the pIC50 was 6.38.
Take `CC(C)(C)c1nnc(-c2ccc(NS(=O)(=O)c3ccc4[nH]c(-c5ccc(N6CCOCC6)cc5)nc4c3)cc2)o1` [Example 593, N-(4-(5-tert-butyl-1,3,4-oxadiazol-2-yl)phenyl)-2-(4-morpholinophenyl)-1H-benzo[d]imidazole-5-sulfonamide]: the pIC50 was 6.00.
The figure for `COc1ccc(Nc2nc3cc(S(=O)(=O)N[C@H]4CC[C@H](c5nnc(C(C)C)o5)CC4)ccc3[nH]2)cc1` [Example 594, N-((1r,4r)-4-(5-isopropyl-1,3,4-oxadiazol-2-yl)cyclohexyl)-2-(4-methoxyphenylamino)-1H-benzo[d]imidazole-5-sulfonamide] is 6.69.
The figure for `CC(C)c1nnc([C@H]2CC[C@H](NS(=O)(=O)c3ccc4[nH]c(Nc5ccccc5)nc4c3)CC2)o1` [Example 595, N-((1r,4r)-4-(5-isopropyl-1,3,4-oxadiazol-2-yl)cyclohexyl)-2-(phenylamino)-1H-benzo[d]imidazole-5-sulfonamide] is 6.59; for `COc1ccc(Nc2nc3cc(S(=O)(=O)N[C@H]4CC[C@H](c5nnc(C(C)(C)C)o5)CC4)ccc3[nH]2)cc1` [Example 596, N-((1r,4r)-4-(5-tert-butyl-1,3,4-oxadiazol-2-yl)cyclohexyl)-2-(4-methoxyphenylamino)-1H-benzo[d]imidazole-5-sulfonamide] it is 6.74.
Consider `CC(C)(C)c1nnc([C@H]2CC[C@H](NS(=O)(=O)c3ccc4[nH]c(Nc5ccccc5)nc4c3)CC2)o1` [Example 597, N-((1r,4r)-4-(5-tert-butyl-1,3,4-oxadiazol-2-yl)cyclohexyl)-2-(phenylamine)-1H-benzo[d]imidazole-5-sulfonamide], for which the negative logarithm of the IC50 (pIC50) was 6.79.

The values are drawn from patent US8697739B2, “Bicyclic acetyl-CoA carboxylase inhibitors and uses thereof” (Novartis AG, priority 2010, dated 2014).
